Assays:
[1] = target: hepatic lipase (HL) (Homo sapiens (Human), UniProt P11150); assay: HL assay: hepatic lipase activity with fluorescent substrate A10070 in DMPG vesicles; format: biochemical
Summary of the method: (§1)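 EL from conditioned medium of HT-1080 cells engineered to overexpress endogenous EL; HL partially purified from conditioned medium of HL-overexpressing COS cells. Enzyme preincubated with compound 30 min at 37° C in 50 mM HEPES pH 8.0, 50 mM NaCl, 1 mM CaCl2; DMPG vesicles carrying FRET substrate (0.11 mole fraction) then added.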

[2] = target: Endothelial lipase (EL) (Homo sapiens (Human), UniProt Q9Y5X9); assay: EL assay: endothelial lipase activity with fluorescent substrate A10070 in DMPG vesicles; format: biochemical
Chain of Endothelial lipase (EL) (Q9Y5X9 21-500): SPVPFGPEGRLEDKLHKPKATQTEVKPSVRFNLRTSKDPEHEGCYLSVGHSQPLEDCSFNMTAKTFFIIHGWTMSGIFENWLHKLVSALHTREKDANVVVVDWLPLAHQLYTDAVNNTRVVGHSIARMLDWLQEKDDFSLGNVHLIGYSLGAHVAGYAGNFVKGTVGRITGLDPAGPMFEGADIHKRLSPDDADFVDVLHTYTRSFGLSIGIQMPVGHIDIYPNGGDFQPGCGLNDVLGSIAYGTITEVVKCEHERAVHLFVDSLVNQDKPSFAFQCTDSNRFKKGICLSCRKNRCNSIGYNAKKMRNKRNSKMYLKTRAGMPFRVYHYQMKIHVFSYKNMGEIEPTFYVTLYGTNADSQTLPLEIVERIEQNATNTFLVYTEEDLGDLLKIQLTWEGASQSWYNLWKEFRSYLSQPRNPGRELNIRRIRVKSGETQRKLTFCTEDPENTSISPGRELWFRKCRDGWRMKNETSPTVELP
Summary of the method: as §1

Chain of hepatic lipase (HL) (P11150 23-499, species assumed): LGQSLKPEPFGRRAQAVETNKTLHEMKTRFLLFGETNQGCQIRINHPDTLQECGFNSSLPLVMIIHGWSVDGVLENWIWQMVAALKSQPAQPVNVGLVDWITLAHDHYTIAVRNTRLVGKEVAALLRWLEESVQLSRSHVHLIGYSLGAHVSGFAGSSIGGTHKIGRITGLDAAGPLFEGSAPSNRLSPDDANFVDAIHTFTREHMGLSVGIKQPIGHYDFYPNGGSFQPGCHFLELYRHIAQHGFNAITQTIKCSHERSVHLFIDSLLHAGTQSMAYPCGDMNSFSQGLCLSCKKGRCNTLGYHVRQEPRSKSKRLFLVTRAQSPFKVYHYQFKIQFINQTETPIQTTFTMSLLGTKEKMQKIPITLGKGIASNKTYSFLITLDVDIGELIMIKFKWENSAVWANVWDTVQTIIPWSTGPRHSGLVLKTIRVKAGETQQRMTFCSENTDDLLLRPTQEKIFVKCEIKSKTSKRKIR

SMILES	IC50 [1] [µM]	IC50 [2] [µM]
NS(=O)(=O)CCNC(=O)C(c1nc2ccc(-c3cnn(CCN4CCOCC4)c3)cc2s1)S(=O)(=O)CCCC(F)(F)F (stereo not shown) [Example B127, 2-(6-(1-(2-(4-morpholinyl)eth-yl)-1H-pyrazol-4-yl)-1,3-benzothiazol-2-yl)-N-(2-sulfamoylethyl)-2-((4,4,4-trifluorobutyl)sul-fonyl)acetamide]	0.933	< 0.01
Cc1cc2nc(C(C(=O)NCCS(N)(=O)=O)S(C)(=O)=O)sc2cc1-c1ccc(F)nc1 (stereo not shown) [Example B129]	< 0.01	< 0.01
Cc1cc2nc(C(C(=O)NCCS(N)(=O)=O)S(=O)(=O)CCC(F)(F)F)sc2cc1-c1ccc(F)nc1 (stereo not shown) [Example B130, 2-(6-(6-fluoro-3-pyridinyl)-5-methyl-1,3-benzothiazol-2-yl)-2-(3,3,3-trifluoropropyl-sulfonyl)-N-(2-sulfamoylethyl)acetamide]	0.013	< 0.01
Cc1cc2nc(C(C(=O)NCCS(N)(=O)=O)S(=O)(=O)CC(C)C)sc2cc1-c1ccc(F)nc1 (stereo not shown) [Example B131, 2-(6-(6-fluoro-3-pyridinyl)-5-methyl-1,3-benzothiazol-2-yl)-2-(isobutylsulfonyl)-N-(2-sulfamoylethyl)acetamide]	0.012	< 0.01
Cc1cc2nc(C(C(=O)NCCS(N)(=O)=O)S(=O)(=O)C(C)C)sc2cc1-c1ccc(F)nc1 (stereo not shown) [Example B132, 2-(6-(6-fluoro-3-pyridinyl)-5-methyl-1,3-benzothiazol-2-yl)-2-(isopropylsulfonyl)-N-(2-sulfamoylethyl)acetamide]	0.411	< 0.01
NS(=O)(=O)CCNC(=O)C(c1nc2c(F)cc(-c3ccccc3)cc2s1)S(=O)(=O)Cc1ccccc1 (stereo not shown) [Example B133, 2-(benzylsulfonyl)-2-(4-fluoro-6-phenyl-1,3-benzothiazol-2-yl)-N-(2-sulfamoylethyl)acetamide]	0.022	< 0.01
COCCS(=O)(=O)C(C(=O)NCCS(N)(=O)=O)c1nc2c(F)cc(-c3ccccc3)cc2s1 (stereo not shown) [Example B134, 2-(4-fluoro-6-phenyl-1,3-benzothiazol-2-yl)-2-((2-methoxyethyl)sulfonyl)-N-(2-sulfamoylethyl)a-cetamide]	0.018	< 0.01
NS(=O)(=O)CCNC(=O)C(c1nc2cc(F)c(-c3ccccc3)cc2s1)S(=O)(=O)CCNC(=O)OCc1ccccc1 (stereo not shown) [Example B135, benzyl (2-((1-(5-fluoro-6-phenyl-1,3-benzothiazol-2-yl)-2-oxo-2-((2-sulfamoyl-ethyl)amino)ethyl)sul-fonyl)ethyl)carbamate]	0.056	< 0.01
NS(=O)(=O)CCNC(=O)C(c1nc2cc(F)c(-c3ccccc3)cc2s1)S(=O)(=O)CCC(F)(F)F (stereo not shown) [Example B136, 2-(5-fluoro-6-phenyl-1,3-benzothiazol-2-yl)-N-(2-sulfamoylethyl)-2-[(3,3,3-trifluoropropyl)sulfonyl]a-cetamide]	0.011	< 0.01
CS(=O)(=O)C(C(=O)NCc1csc(N)n1)c1nc2ccc(-c3ccc(C(=O)N4CCOCC4)cc3)cc2s1 (stereo not shown) [Example B137, N-((2-amino-1,3-thiazol-4-yl)methyl)-2-(methylsulfonyl)-2-(6-(4-(4-morpholinylcarbonyl)phen-yl)-1,3-benzothiazol-2-yl)acetamide]	17.5	< 0.01
Cn1cc(-c2cc3sc(C(C(=O)NCCS(N)(=O)=O)S(=O)(=O)Cc4ccccc4)nc3cc2F)cn1 (stereo not shown) [Example B138, 2-(benzylsulfonyl)-2-(5-fluoro-6-(1-methyl-1H-pyrazol-4-yl)-1,3-benzothiazol-2-yl)-N-(2-sulfamoylethyl)acetamide]	0.142	< 0.01
NS(=O)(=O)CCNC(=O)C(c1nc2ccc(-c3cncnc3)cc2s1)S(=O)(=O)CCC(F)(F)F (stereo not shown) [Example B139, 2-(6-(5-Pyrimidinyl)-1,3-benzothiazol-2-yl)-N-(2-sulfamoylethyl)-2-((3,3,3-trifluoropropyl)sulfonyl)a-cetamide]	2.09	0.016
NS(=O)(=O)CCNC(=O)C(c1nc2ccc(-c3cncnc3)cc2s1)S(=O)(=O)Cc1ccccc1 (stereo not shown) [Example B140, 2-(benzylsulfonyl)-2-(6-(5-pyrimidinyl)-1,3-benzothiazol-2-yl)-N-(2-sulfamoylethyl)acetamide]	8.79	0.0137
COCCS(=O)(=O)C(C(=O)NCCS(N)(=O)=O)c1nc2ccc(-c3cncnc3)cc2s1 (stereo not shown) [Example B141, 2-((2-methoxyethyl)sul-fonyl)-2-(6-(5-pyrimidinyl)-1,3-benzothiazol-2-yl)-N-(2-sulfamoylethyl)acetamide]	2.21	0.0147
COc1cc(-c2ccc3nc(C(C(=O)NCCS(N)(=O)=O)S(C)(=O)=O)sc3c2)c(F)cn1 (stereo not shown) [Example B142, 2-(6-(5-fluoro-2-methoxy-4-pyridinyl)-1,3-benzothiazol-2-yl)-2-(methylsulfonyl)-N-(2-sulfamoylethyl)acetamide]	0.077	> 0.01
NS(=O)(=O)CCNC(=O)C(c1nc2ccc(-c3cncnc3)cc2s1)S(=O)(=O)Cc1ccc(F)cc1 (stereo not shown) [Example B143, 2-((4-fluorobenzyl)sul-fonyl)-2-(6-(5-pyrimidinyl)-1,3-benzothiazol-2-yl)-N-(2-sulfamoylethyl)acetamide]	4.74	0.018
COc1cc(-c2ccc3nc(C(C(=O)NCCS(N)(=O)=O)S(=O)(=O)CCC(F)(F)F)sc3c2)ccn1 (stereo not shown) [Example B144, 2-(6-(2-methoxy-4-pyridinyl)-1,3-benzothiazol-2-yl)-N-(2-sulfamoylethyl)-2-((3,3,3-trifluoropropyl)sulfonyl)a-cetamide]	0.033	< 0.01
Cn1ccc(-c2ccc3nc(C(C(=O)NCCS(N)(=O)=O)S(=O)(=O)CCC(F)(F)F)sc3c2)cc1=O (stereo not shown) [Example B145, 2-(6-(1-methyl-2-oxo-1,2-dihydro-4-pyridinyl)-1,3-benzothiazol-2-yl)-N-(2-sulfamoylethyl)-2-((3,3,3-trifluoropropyl)sulfonyl)a-cetamide]	0.362	< 0.01
CS(=O)(=O)C(C(=O)NCCS(N)(=O)=O)c1nc2ccc(-c3cncnc3)cc2s1 (stereo not shown) [Example B146, 2-(methylsulfonyl)-2-(6-(5-pyrimidinyl)-1,3-benzothiazol-2-yl)-N-(2-sulfamoylethyl)acetamide]	0.916	< 0.01
COc1cc(-c2ccc3nc(C(C(=O)NCCS(N)(=O)=O)S(C)(=O)=O)sc3c2)ccn1 (stereo not shown) [Example B147, 2-(6-(2-methoxy-4-pyridinyl)-1,3-benzothiazol-2-yl)-2-(methylsulfonyl)-N-(2-sulfamoylethyl)acetamide]	< 0.01	< 0.01
COCCS(=O)(=O)C(C(=O)NCCS(N)(=O)=O)c1nc2ccc(-c3ccnc(OC)c3)cc2s1 (stereo not shown) [Example B148, 2-((2-methoxyethyl)sul-fonyl)-2-(6-(2-methoxy-4-pyridinyl)-1,3-benzothiazol-2-yl)-N-(2-sulfamoylethyl)acetamide]	0.013	< 0.01
COc1nccc(-c2ccc3nc(C(C(=O)NCCS(N)(=O)=O)S(C)(=O)=O)sc3c2)c1F (stereo not shown) [Example B149, 2-(6-(3-fluoro-2-methoxy-4-pyridinyl)-1,3-benzothiazol-2-yl)-2-(methylsulfonyl)-N-(2-sulfamoylethyl)acetamide]	0.064	< 0.01
Cc1nnc(CNC(=O)C(c2nc3cc(F)c(-c4ccccc4)cc3s2)S(=O)(=O)CCC(F)(F)F)o1 (stereo not shown) [Example B150, 2-(5-Fluoro-6-phenyl-1,3-benzothiazol-2-yl)-N-((5-methyl-1,3,4-oxadiazol-2-yl)methyl)-2-((3,3,3-trifluoropropyl)sulfonyl)a-cetamide]	0.084	< 0.01
CCS(=O)(=O)C(C(=O)NCc1nnc(C)o1)c1nc2cc(F)c(-c3ccccc3)cc2s1 (stereo not shown) [Example B151, 2-(ethylsulfonyl)-2-(5-fluoro-6-phenyl-1,3-benzothiazol-2-yl)-N-((5-methyl-1,3,4-oxadiazol-2-yl)methyl)acetamide]	0.047	< 0.01
Cc1nnc(CNC(=O)C(c2nc3cc(F)c(-c4ccccc4)cc3s2)S(=O)(=O)CC(C)C)o1 (stereo not shown) [Example B152, 2-(5-fluoro-6-phenyl-1,3-benzothiazol-2-yl)-2-(isobutylsulfonyl)-N-((5-methyl-1,3,4-oxadiazol-2-yl)methyl)acetamide]	0.039	< 0.01
Cc1nnc(CNC(=O)C(c2nc3cc(F)c(-c4ccccc4)cc3s2)S(=O)(=O)Cc2ccccc2)o1 (stereo not shown) [Example B153, 2-(benzylsulfonyl)-2-(5-fluoro-6-phenyl-1,3-benzothiazol-2-yl)-N-((5-methyl-1,3,4-oxadiazol-2-yl)methyl)acetamide]	0.039	< 0.01
Cc1nnc(CNC(=O)C(c2nc3cc(F)c(-c4ccccc4)cc3s2)S(C)(=O)=O)o1 (stereo not shown) [Example B154, 2-(5-fluoro-6-phenyl-1,3-benzothiazol-2-yl)-N-[(5-methyl-1,3,4-oxadiazol-2-yl)methyl]-2-(methylsulfonyl)acetamide]	0.011	< 0.01
COCCS(=O)(=O)C(C(=O)NCc1nnc(C)o1)c1nc2cc(F)c(-c3ccccc3)cc2s1 (stereo not shown) [Example B155, 2-(5-fluoro-6-phenyl-1,3-benzothiazol-2-yl)-2-[(2-methoxyethyl)sulfonyl]-N-[(5-methyl-1,3,4-oxadiazol-2-yl)methyl]acetamide]	< 0.01	< 0.01
CC(C)(C)OC(=O)c1ccc(-c2ccc3nc(C(C(=O)NCCS(N)(=O)=O)S(C)(=O)=O)sc3c2)cc1 (stereo not shown) [Example B156, tert-butyl 4-(2-(1-(methylsulfonyl)-2-oxo-2-(2-sulfamoylethylamino)eth-yl)benzo[d]thiazol-6-yl)benzoate]	< 0.01	< 0.01
